Laboratory results reported in article PMC5004176, “The antifungal plant defensin AtPDF2.3 from Arabidopsis thaliana blocks potassium channels” (Scientific Reports, 2016).
Ends that are not written are not given here.

Legend:
Botrytis cinerea B05.10 = experiment: Fungal growth inhibitory assay; format: cell-based; conditions: half strength PDB, 10^4 spores/mL, 48 hours, determined microscopically, n ≥ 3; read-out: IC50 (growth inhibition)
Nav1.5 = experiment: Two-electrode voltage-clamp on Nav1.5 expressed in X. laevis oocytes; format: cell-based; conditions: 5 μM, n ≥ 4
Kv2.1 = experiment: Two-electrode voltage-clamp on Kv2.1 expressed in X. laevis oocytes; conditions: 3 μM, n ≥ 3
Procedure: (§1) For the expression of the voltage-gated potassium channels (rKv1.1, rKv1.2, hKv1.3, rKv1.4, rKv1.5, rKv1.6, Shaker IR, hKv3.1, rKv4.3, and hERG) in Xenopus laevis oocytes, the linearized plasmids were transcribed using the T7 or SP6 mMESSAGE-mMACHINE transcription kit (Ambion). The harvesting of stage V–VI oocytes from an anaesthetized female X. laevis frog was previously described[59]. Oocytes were injected with 50 nL of cRNA at a concentration of 1 ng/nL using a micro-injector (Drummond Scientific, USA). The oocytes were incubated in a solution containing (in mM): NaCl, 96; KCl, 2; CaCl2, 1.8; MgCl2, 2 and HEPES, 5 (pH 7.4), supplemented with 50 mg/L gentamycin sulfate.
(§2) Two-electrode voltage-clamp recordings were performed at room temperature (18–22 °C) using a Geneclamp 500 amplifier (Molecular Devices, USA) controlled by a pClamp data acquisition system (Axon Instruments, USA). Whole cell currents from oocytes were recorded 1–4 days after injection. Bath solution composition was ND96 (in mM): NaCl, 96; KCl, 2; CaCl2, 1.8; MgCl2, 2 and HEPES, 5 (pH 7.4) or HK (in mM): NaCl, 2; KCl, 96; CaCl2, 1.8; MgCl2, 2 and HEPES, 5 (pH 7.4). Voltage and current electrodes were filled with 3 M KCl. Resistances of both electrodes were kept between 0.7 and 1.5 MΩ. […] GV curves were calculated from IV relationships as follows: gK = IK/(Em−EK) with EK = (RT/zF)ln[K #0]o/[K #0]i. […]

Kv1.6 channels = experiment: Two-electrode voltage-clamp on Kv1.6 expressed in X. laevis oocytes; conditions: n ≥ 3
Procedure: as §1
Two-electrode voltage-clamp recordings were performed at room temperature (18–22 °C) using a Geneclamp 500 amplifier (Molecular Devices, USA) controlled by a pClamp data acquisition system (Axon Instruments, USA). Whole cell currents from oocytes were recorded 1–4 days after injection. Bath solution composition was ND96 (in mM): NaCl, 96; KCl, 2; CaCl2, 1.8; MgCl2, 2 and HEPES, 5 (pH 7.4) or HK (in mM): NaCl, 2; KCl, 96; CaCl2, 1.8; MgCl2, 2 and HEPES, 5 (pH 7.4). Voltage and current electrodes were filled with 3 M KCl. Resistances of both electrodes were kept between 0.7 and 1.5 MΩ. The elicited currents were filtered at 0.5 kHz and sampled at 2 kHz (for potassium currents) or filtered at 2 kHz and sampled at 20 kHz (for sodium currents) using a four-pole low-pass Bessel filter. Leak subtraction was performed using a -P/4 protocol. Kv1.1–Kv1.6 and Shaker currents were evoked by 250 ms depolarizations to 0 mV followed by a 250 ms pulse to −50 mV, from a holding potential of −90 mV. Current traces of hERG channels were elicited by applying a +40 mV prepulse for 2 s followed by a step to −120 mV for 2 s. […] In order to investigate the current–voltage relationship, current traces were evoked by 10 mV depolarization steps from a holding potential of −90 mV. To assess the concentration dependency of the toxin induced inhibitory effects, a concentration–response curve was constructed, in which the percentage of current inhibition was plotted as a function of toxin concentration. Data were fitted with the Hill equation: y = 100/[1 + (IC50/[toxin])^h], were y is the amplitude of the toxin-induced effect, IC50 is the toxin concentration at half-maximal efficacy, [toxin] is the toxin concentration, and h is the Hill coefficient. GV curves were calculated from IV relationships as follows: gK = IK/(Em−EK) with EK = (RT/zF)ln[K #0]o/[K #0]i. In these equations gK represents the conductance, IK the potassium current, Em the membrane potential, EK the reversal potential, R the gas constant (8.31 J/K mol), T the temperature, z the charge of the ion (for K+ ions: z = 1), F the Faraday’s constant (96.500 C/mol), [K #0]o and [K #0]i respectively are the extracellular and intracellular K+ ion concentrations. The values of IK or gK were plotted as function of voltage and fitted using the Boltzmann equation: gK/gmax = [1 + exp(Vg−V)/k]−1, were gmax represents maximal gK, Vg is the voltage corresponding to half-maximal conductance, and k is the slope factor. Comparison of two sample means was made using a paired Student’s t test (P < 0.05). All data represent at least three independent experiments (n ≥ 3) and are presented as mean ± standard error.

hERG (Kv11.1) = experiment: Two-electrode voltage-clamp on hERG expressed in X. laevis oocytes; conditions: 3 μM, n ≥ 3
Procedure: as §1, §2

[1] = system: Saccharomyces cerevisiae BY4741 ∆ppz2; experiment: Yeast growth inhibitory assay; format: cell-based; conditions: BY4741 ∆ppz2, MM medium, 24 hours, OD490nm, mean ± SEM, n ≥ 3; read-out: IC50 (growth inhibition)
[2] = system: Saccharomyces cerevisiae BY4741 WT; experiment: Yeast growth inhibitory assay; format: cell-based; conditions: MM medium, ~10^6 cells/mL, 24 hours, OD490nm, mean ± SEM, n ≥ 3, read-out: IC50 (growth inhibition)
Kv1.3 = experiment: Two-electrode voltage-clamp on Kv1.3 expressed in X. laevis oocytes; conditions: 3 μM, n ≥ 3
Procedure: as §1, §2

Verticillium dahliae = experiment: Fungal growth inhibitory assay; format: cell-based; conditions: half strength PDB, 10^4 spores/mL, 48 hours, determined microscopically, n ≥ 3; read-out: IC50 (growth inhibition)
[3] = system: Fusarium graminearum PH-1; format: cell-based; conditions: read-out: IC50 (growth inhibition)
[4] = system: Saccharomyces cerevisiae BY4743 ∆frq1; experiment: Yeast growth inhibitory assay; format: cell-based; conditions: BY4743 ∆frq1, MM medium, 24 hours, OD490nm, mean ± SEM, n ≥ 3; read-out: IC50 (growth inhibition)
[5] = system: Saccharomyces cerevisiae BY4741 ∆trk2; experiment: Yeast growth inhibitory assay; format: cell-based; conditions: BY4741 ∆trk2, MM medium, 24 hours, OD490nm, mean ± SEM, n ≥ 3; read-out: IC50 (growth inhibition)
[6] = system: Saccharomyces cerevisiae BY4741 ∆qdr2; experiment: Yeast growth inhibitory assay; format: cell-based; conditions: BY4741 ∆qdr2, MM medium, 24 hours, OD490nm, mean ± SEM, n ≥ 3; read-out: IC50 (growth inhibition)

For “rAtPDF2.3: Arabidopsis thaliana plant defensin AtPDF2.3 produced recombinantly in Pichia pastoris (RTCESKSHRFKGPCVSTHNCANVCHNEGFGGGKCRGFRRRCYCTRHC; ends and bridges not checked; cysteine pairing not given here)”, the IC50 (Botrytis cinerea B05.10) was 5.8 µM, the “activity on Nav1.5” value (Nav1.5) was “does not show activity” and the “activity on Kv2.1 (Shab) at single concentration” value (Kv2.1) was “no effect”. For the same substance, the “activity on Kv1.6 at single concentration” value (Kv1.6 channels; 3 μM) was “can block”, the IC50 (Kv1.6 channels; read-out: IC50 for Kv1.6, two-electrode voltage-clamp, X. laevis oocytes, concentration-response curve fitted with Hill equation, mean ± standard error) was 978 ± 113 nM and the “activity on hERG (Kv11.1) at single concentration” value (hERG (Kv11.1)) was “no effect”. The IC50 [1] was 8.6 ± 0.5 µM, the IC50 [2] was 8.1 ± 0.9 µM and the “activity on Kv1.3 at single concentration” value (Kv1.3) was “no effect”. The IC50 (Verticillium dahliae) was 4.4 ± 1.6 µM, the IC50 [3] was 1400 nM and the IC50 [4] was 3.1 ± 0.1 µM. The IC50 [5] was 7 ± 0.6 µM and the IC50 [6] was 2900 ± 200 nM.
